Laboratory results published in ChEMBL document CHEMBL2375216, “Molecular design, synthesis and biological evaluation of cyclic imides bearing benzenesulfonamide fragment as potential COX-2 inhibitors. Part 2” (Bioorg Med Chem Lett, 2013).

Key:
[1] = biological target: T1, Prostaglandin G/H synthase 1 (Ovis aries, UniProt P05979); assay: Inhibition of ovine COX1-mediated prostaglandin alpha production by enzyme immuno assay
T1 sequence (P05979 whole entry): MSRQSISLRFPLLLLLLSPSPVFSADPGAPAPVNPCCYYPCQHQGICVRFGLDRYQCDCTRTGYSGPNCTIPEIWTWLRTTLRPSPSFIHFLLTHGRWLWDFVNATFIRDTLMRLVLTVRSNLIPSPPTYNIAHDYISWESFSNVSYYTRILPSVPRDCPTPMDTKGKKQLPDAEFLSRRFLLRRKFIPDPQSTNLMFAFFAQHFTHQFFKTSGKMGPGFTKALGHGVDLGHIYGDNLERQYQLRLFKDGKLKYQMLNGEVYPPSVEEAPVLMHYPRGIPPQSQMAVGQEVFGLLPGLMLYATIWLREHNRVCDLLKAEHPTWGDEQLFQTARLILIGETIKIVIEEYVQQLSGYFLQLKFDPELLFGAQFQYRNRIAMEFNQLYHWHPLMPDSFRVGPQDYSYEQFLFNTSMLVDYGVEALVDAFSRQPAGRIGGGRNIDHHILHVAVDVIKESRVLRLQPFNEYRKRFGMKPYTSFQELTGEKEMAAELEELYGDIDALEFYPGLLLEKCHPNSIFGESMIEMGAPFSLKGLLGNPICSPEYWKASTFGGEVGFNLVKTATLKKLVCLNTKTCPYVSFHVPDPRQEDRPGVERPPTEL

[2] = system: Rattus norvegicus; assay: Antiinflammatory activity in ip dosed Sprague-Dawley rat assessed as inhibition of carrageenan-induced paw edema measured after 2 hrs plethysmometric analysis; assay type: functional

## O=C(O)c1ccc(N2C(=O)c3cccc4cccc(c34)C2=O)cc1
[1]
  IC50: > 100 µM

## NS(=O)(=O)c1ccc(N2C(=O)c3c(Cl)c(Cl)c(Cl)c(Cl)c3C2=O)cc1
[1]
  IC50: > 100 µM

## O=C(O)c1ccc(N2C(=O)c3c(Cl)c(Cl)c(Cl)c(Cl)c3C2=O)cc1
[1]
  IC50: > 100 µM

## NS(=O)(=O)c1ccc(CN2C(=O)c3ccc([N+](=O)[O-])cc3C2=O)cc1
[2]
  ED50: 72.4 mg/kg
[1]
  IC50: > 100 µM

## NS(=O)(=O)c1ccc(N2C(=O)c3ccc([N+](=O)[O-])cc3C2=O)cc1
[2]
  ED50: 101 mg/kg
[1]
  IC50: > 100 µM

## O=C(O)c1ccc(N2C(=O)c3ccc([N+](=O)[O-])cc3C2=O)cc1
[1]
  IC50: > 100 µM

## NS(=O)(=O)c1ccc(CN2C(=O)c3nccnc3C2=O)cc1
[2]
  ED50: 126 mg/kg
[1]
  IC50: > 100 µM

## NS(=O)(=O)c1ccc(N2C(=O)c3nccnc3C2=O)cc1
[2]
  ED50: 160 mg/kg
[1]
  IC50: > 100 µM

## O=C(O)c1ccc(N2C(=O)c3nccnc3C2=O)cc1
[1]
  IC50: > 100 µM

## NS(=O)(=O)c1ccc(CN2C(=O)c3cccc4cccc(c34)C2=O)cc1
[2]
  ED50: 200 mg/kg
[1]
  IC50: > 100 µM

## NS(=O)(=O)c1ccc(N2C(=O)c3cccc4cccc(c34)C2=O)cc1
[2]
  ED50: 210 mg/kg
[1]
  IC50: > 100 µM

## NS(=O)(=O)c1ccc(CN2C(=O)CCC2=O)cc1
[1]
  IC50: > 100 µM

## NS(=O)(=O)c1ccc(N2C(=O)CCC2=O)cc1
[1]
  IC50: > 100 µM

## O=C(O)c1ccc(N2C(=O)CCC2=O)cc1
[1]
  IC50: > 100 µM

## NS(=O)(=O)c1ccc(CN2C(=O)[C@H]3CC=CC[C@H]3C2=O)cc1
[1]
  IC50: > 100 µM

## NS(=O)(=O)c1ccc(N2C(=O)[C@H]3CC=CC[C@H]3C2=O)cc1
[1]
  IC50: > 100 µM

## O=C(O)c1ccc(N2C(=O)[C@H]3CC=CC[C@H]3C2=O)cc1
[1]
  IC50: > 100 µM

## NS(=O)(=O)c1ccc(CN2C(=O)c3ccccc3C2=O)cc1
[1]
  IC50: > 100 µM

## Cc1ccc2c(c1)C(=O)N(Cc1ccc(S(N)(=O)=O)cc1)C2=O
[1]
  IC50: > 100 µM

## Cc1ccc2c(c1)C(=O)N(c1ccc(S(N)(=O)=O)cc1)C2=O
[1]
  IC50: > 100 µM

## Cc1ccc2c(c1)C(=O)N(c1ccc(C(=O)O)cc1)C2=O
[1]
  IC50: > 100 µM

## CC(C)(C)c1ccc2c(c1)C(=O)N(Cc1ccc(S(N)(=O)=O)cc1)C2=O
[1]
  IC50: > 100 µM

## CC(C)(C)c1ccc2c(c1)C(=O)N(c1ccc(S(N)(=O)=O)cc1)C2=O
[1]
  IC50: > 100 µM

## CC(C)(C)c1ccc2c(c1)C(=O)N(c1ccc(C(=O)O)cc1)C2=O
[1]
  IC50: > 100 µM

## NS(=O)(=O)c1ccc(CN2C(=O)c3cc(Cl)c(Cl)cc3C2=O)cc1
[2]
  ED50: 100 mg/kg
[1]
  IC50: > 100 µM

## NS(=O)(=O)c1ccc(N2C(=O)c3cc(Cl)c(Cl)cc3C2=O)cc1
[2]
  ED50: 111 mg/kg
[1]
  IC50: > 100 µM

## O=C(O)c1ccc(N2C(=O)c3cc(Cl)c(Cl)cc3C2=O)cc1
[1]
  IC50: > 100 µM

## NS(=O)(=O)c1ccc(CN2C(=O)c3c(Cl)c(Cl)c(Cl)c(Cl)c3C2=O)cc1
[1]
  IC50: > 100 µM

## O=C(O)c1ccc(N2C(=O)c3ccccc3C2=O)cc1
[1]
  IC50: > 100 µM

## NS(=O)(=O)c1ccc(N2C(=O)c3ccccc3C2=O)cc1
[1]
  IC50: > 100 µM

## Cc1ccc(-c2cc(C(F)(F)F)nn2-c2ccc(S(N)(=O)=O)cc2)cc1 [CELECOXIB]
[2]
  ED50: 83.4 mg/kg
